Counter-ions that a name gives are not always drawn.

For one test, the target named is human SPR (Homo sapiens (Human), UniProt P35270). In words: Evaluation Example 2: Measurement of human SPR inhibitory activity (seven concentrations, sepiapterin absorbance at 420 nm). It counts as biochemical. The note with it: Evaluation Example 2, seven concentrations 0.14 nM to 100 nM, 240 minutes at room temperature, read-out: IC50. In a few lines: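 Reactions ran 240 min at room temperature in 100 mM Tris-HCl pH 7.5 with 0.01% BSA. They contained tag-cleaved, E. coli-expressed full-length human SPR (diluted to 150 ng/mL), seven compound concentrations from 0.14 to 100 nM, and sepiapterin/NADPH added as a 120 μM/160 μM solution. Inhibition was calculated from sepiapterin absorbance at 420 nm.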
human SPR, sequence (P35270 whole entry): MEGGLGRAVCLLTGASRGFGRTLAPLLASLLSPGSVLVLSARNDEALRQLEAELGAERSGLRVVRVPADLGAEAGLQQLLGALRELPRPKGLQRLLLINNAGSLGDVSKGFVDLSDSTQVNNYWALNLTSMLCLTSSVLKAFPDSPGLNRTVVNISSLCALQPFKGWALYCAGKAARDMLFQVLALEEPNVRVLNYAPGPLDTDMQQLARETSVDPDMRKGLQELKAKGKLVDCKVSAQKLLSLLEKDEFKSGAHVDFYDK
For `CC(C)Cn1c(=O)c(C(=O)NC2CC2)c(O)n2ncc(/C=C/C(=O)N3CCNCC3)c12` [compound 508, (E)-N-Cyclopropyl-7-hydroxy-4-isobutyl-5-oxo-3-(3-oxo-3-(piperazin-1-yl)prop-1-en-1-yl)-4,5-dihydropyrazolo[1,5-a]pyrimidine-6-carboxamide hydrochloride], the IC50 came to 0.77 nM.

As to `CC(C)Cn1c(=O)c(C(=O)NC2CC2)c(O)n2ncc(/C=C/C3(C)CCOCC3)c12` [Synthesis Example 242, (E)-N-Cyclopropyl-7-hydroxy-4-isobutyl-3-(2-(4-methyltetrahydro-2H-pyran-4-yl)vinyl)-5-oxo-4,5-dihydropyrazolo[1,5-a]pyrimidine-6-carboxamide], the IC50 was found to be 1.39 nM.

In the case of `O=C(NC1CC1)c1c(O)n2ncc(/C=C/C(=O)N3C4CCC3COC4)c2n(CC2(F)CC2)c1=O` [Synthesis Example 376, (E)-3-(3-(3-Oxa-8-azabicyclo[3.2.1]octan-8-yl)-3-oxoprop-1-en-1-yl)-N-cyclopropyl-4-((1-fluorocyclopropyl)methyl)-7-hydroxy-5-oxo-4,5-dihydropyrazolo[1,5-a]pyrimidine-6-carboxamide], the IC50 was found to be 0.72 nM.

Take `Cc1cncnc1Nc1cc2n(CC(C)(C)C)c(=O)c(C(=O)NC3CC3)c(O)n2n1` [Synthesis Example 340, N-Cyclopropyl-7-hydroxy-2-((5-methylpyrimidin-4-yl)amino)-4-neopentyl-5-oxo-4,5-dihydropyrazolo[1,5-a]pyrimidine-6-carboxamide]: the IC50 turned out to be 1.92 nM.

As to `CC(=O)N1CCC2(CCCN2C(=O)/C=C/c2c(C)nn3c(O)c(C(=O)NC4CC4)c(=O)n(CC(C)C)c23)CC1` [Synthesis Example 665, (E)-3-(3-(8-Acetyl-1,8-diazaspiro[4.5]decan-1-yl)-3-oxoprop-1-en-1-yl)-N-cyclopropyl-7-hydroxy-4-isobutyl-2-methyl-5-oxo-4,5-dihydropyrazolo[1,5-a]pyrimidine-6-carboxamide], the IC50 was found to be 0.92 nM.

Consider `CC(C)Cn1c(=O)c(C(=O)NC2CC2)c(O)n2ncc(/C=C/C(=O)N3CCC[C@@H]3C(F)(F)F)c12` [compound 485, (R,E)-N-Cyclopropyl-7-hydroxy-4-isobutyl-5-oxo-3-(3-oxo-3-(2-(trifluoromethyl)pyrrolidine-1-yl)prop-1-en-1-yl)-4,5-dihydropyrazolo[1,5-a]pyrimidine-6-carboxamide], for which the IC50 was 1.1 nM.

Regarding `Cc1nn2c(O)c(C(=O)NC3CC3)c(=O)n(CC(C)C)c2c1/C=C/C(=O)N1CCC(F)(F)C1` [compound 565, (E)-N-Cyclopropyl-3-(3-(3,3-difluoropyrrolidin-1-yl)-3-oxoprop-1-en-1-yl)-7-hydroxy-4-isobutyl-2-methyl-5-oxo-4,5-dihydropyrazolo[1,5-a]pyrimidine-6-carboxamide], the IC50 was 0.93 nM.

Consider `COC[C@@H]1COCCN1C(=O)/C=C/c1cnn2c(O)c(C(=O)NC3CC3)c(=O)n(CC(C)C)c12` [compound 532, (R,E)-N-Cyclopropyl-7-hydroxy-4-isobutyl-3-(3-(3-(methoxymethyl)morpholino)-3-oxoprop-1-en-1-yl)-5-oxo-4,5-dihydropyrazolo[1,5-a]pyrimidine-6-carboxamide], for which the IC50 stood at 0.55 nM.

Consider `Cc1nn(C)c(C)c1CNC(=O)c1cnn2c(O)c(C(=O)NC3CC3)c(=O)n(CC(C)C)c12` [Synthesis Example 223, N6-Cyclopropyl-7-hydroxy-4-isobutyl-5-oxo-N3-((1,3,5-trimethyl-1H-pyrazol-4-yl)methyl)-4,5-dihydropyrazolo[1,5-a]pyrimidine-3,6-dicarboxamide], for which the IC50 came to 1.12 nM.

`CC(C)Cn1c(=O)c(C(=O)NC2CC2)c(O)n2ncc(/C=C/C(=O)N3CCC(C)(O)CC3)c12` [compound 467, (E)-N-Cyclopropyl-7-hydroxy-3-(3-(4-hydroxy-4-methylpiperidin-1-yl)-3-oxoprop-1-en-1-yl)-4-isobutyl-5-oxo-4,5-dihydropyrazolo[1,5-a]pyrimidine-6-carboxamide]: the IC50 amounted to 0.79 nM.

For the compound `CC(C)Cn1c(=O)c(C(=O)NC2CC2)c(O)n2ncc(CCc3cccnc3)c12` [Synthesis Example 250, N-Cyclopropyl-7-hydroxy-4-isobutyl-5-oxo-3-(2-(pyridin-3-yl)ethyl)-4,5-dihydropyrazolo[1,5-a]pyrimidine-6-carboxamide], the IC50 was found to be 0.88 nM.

As for `CC(C)Cn1c(=O)c(C(=O)NC2CC2)c(O)n2ncc(/C=C/C(=O)N3CCCC3)c12` [compound 452, (E)-N-Cyclopropyl-7-hydroxy-4-isobutyl-5-oxo-3-(3-oxo-3-(pyrrolidin-1-yl)prop-1-en-1-yl)-4,5-dihydropyrazolo[1,5-a]pyrimidine-6-carboxamide], the IC50 amounted to 0.83 nM.

On to `CC(C)Cn1c(=O)c(C(=O)NC2CC2)c(O)n2ncc(C(=O)N[C@@H](C)c3ccccn3)c12` [Synthesis Example 218, (S)-N6-Cyclopropyl-7-hydroxy-4-isobutyl-5-oxo-N3-(1-(pyridin-2-yl)ethyl)-4,5-dihydropyrazolo[1,5-a]pyrimidine-3,6-dicarboxamide], for which the IC50 stood at 0.89 nM.

For `CC(C)(C)Cn1c(=O)c(C(=O)NC2CC2)c(O)n2nc3[nH]c(=O)ccc3c12` [Synthesis Example 394, N-Cyclopropyl-4-hydroxy-1-neopentyl-2,8-dioxo-1,2,7,8-tetrahydropyrido[2′,3′:3,4]pyrazolo[1,5-a]pyrimidine-3-carboxamide], the IC50 came to 0.39 nM.

Consider `CC(C)Cn1c(=O)c(C(=O)NC2CC2)c(O)n2ncc(/C=C/C(=O)N(C)Cc3ccn(C)n3)c12` [compound 604, (E)-N-Cyclopropyl-7-hydroxy-4-isobutyl-3-(3-(methyl((1-methyl-1H-pyrazol-3-yl)methyl)amino)-3-oxoprop-1-en-1-yl)-5-oxo-4,5-dihydropyrazolo[1,5-a]pyrimidine-6-carboxamide], for which the IC50 is 0.92 nM.

For the compound `COc1ccc2c(n1)nn1c(O)c(C(=O)NC3CC3)c(=O)n(CC(C)(C)C)c21` [Synthesis Example 393, N-Cyclopropyl-4-hydroxy-8-methoxy-1-neopentyl-2-oxo-1,2-dihydropyrido[2′,3′:3,4]pyrazolo[1,5-a]pyrimidine-3-carboxamide], the IC50 was found to be 1.38 nM.

Regarding `CC(C)Cn1c(=O)c(C(=O)NC2CC2)c(O)n2ncc(C(=O)N(C)Cc3cccnc3)c12` [Synthesis Example 230, N6-Cyclopropyl-7-hydroxy-4-isobutyl-N3-methyl-5-oxo-N3-(pyridin-3-ylmethyl) 4,5-dihydropyrazolo[1,5-a]pyrimidine-3,6-dicarboxamide], the IC50 was determined as 0.93 nM.

For the compound `CC(C)(C)Cn1c(=O)c(C(=O)NC2CC2)c(O)n2nc(-c3cn[nH]c3)cc12` [Synthesis Example 286, N-Cyclopropyl-7-hydroxy-4-neopentyl-5-oxo-2-(1H-pyrazol-4-yl)-4,5-dihydropyrazolo[1,5-a]pyrimidine-6-carboxamide], the IC50 came to 1.54 nM.

For the compound `CC(C)Cn1c(=O)c(C(=O)NC2CC2)c(O)n2ncc(COc3ccccc3)c12` [Synthesis Example 260, N-Cyclopropyl-7-hydroxy-4-isobutyl-5-oxo-3-(phenoxymethyl)-4,5-dihydropyrazolo[1,5-a]pyrimidine-6-carboxamide], the IC50 is 1.27 nM.

In the case of `COC(C)(C)Cn1c(=O)c(C(=O)NC2CC2)c(O)n2nc(Br)cc12` [Synthesis Example 270, 2-Bromo-N-cyclopropyl-7-hydroxy-4-(2-methoxy-2-methylpropyl)-5-oxo-4,5-dihydropyrazolo[1,5-a]pyrimidine-6-carboxamide], the IC50 was 1.16 nM.

Still in this test, the particulars now being: sepiapterin absorbance, Table 41, read-out: concentration at 50% inhibition of human SPR (IC50).
For `CC(C)Cn1c(=O)c(C(=O)NC2CC2)c(O)n2ncc(/C=C/C(=O)N3CCOc4ncccc43)c12` [Synthesis Example 729, (E)-N-Cyclopropyl-3-(3-(2,3-dihydro-1H-pyrido[2,3-b][1,4]oxazin-1-yl)-3-oxoprop-1-en-1-yl)-7-hydroxy-4-isobutyl-5-oxo-4,5-dihydropyrazolo[1,5-a]pyrimidine-6-carboxamide], the IC50 is 1.05 nM.

`CCN1CCN(C(=O)/C=C/c2c(C)nn3c(O)c(C(=O)NC4CC4)c(=O)n(CC(C)C)c23)[C@@H](C)C1` [Synthesis Example 707, (S,E)-N-Cyclopropyl-3-(3-(4-ethyl-2-methylpiperazin-1-yl)-3-oxoprop-1-en-1-yl)-7-hydroxy-4-isobutyl-2-methyl-5-oxo-4,5-dihydropyrazolo[1,5-a]pyrimidine-6-carboxamide]: the IC50 came out at 0.84 nM.

For the compound `Cc1nn2c(O)c(C(=O)NC3CC3)c(=O)n(CC(C)(C)C)c2c1/C=C/C(=O)N1CCN(C2CC(F)(F)C2)CC1` [Synthesis Example 692, (E)-N-Cyclopropyl-3-(3-(4-(3,3-difluorocyclobutyl)piperazin-1-yl)-3-oxoprop-1-en-1-yl)-7-hydroxy-2-methyl-4-neopentyl-5-oxo-4,5-dihydropyrazolo[1,5-a]pyrimidine-6-carboxamide], the IC50 was 0.8 nM.

For the compound `CC(C)Cn1c(=O)c(C(=O)NC2CC2)c(O)n2ncc(/C=C/C(=O)N3CCCC34CC4)c12` [Synthesis Example 721, (E)-N-Cyclopropyl-7-hydroxy-4-isobutyl-5-oxo-3-(3-oxo-3-(4-azaspiro[2.4]heptan-4-yl)prop-1-en-1-yl)-4,5-dihydropyrazolo[1,5-a]pyrimidine-6-carboxamide], the IC50 was 1.05 nM.

`Cc1nn2c(O)c(C(=O)NC3CC3)c(=O)n(CC(C)C)c2c1/C=C/C(=O)N(C)CCC#N` [Synthesis Example 687, (E)-3-(3-((2-Cyanoethyl)(methyl)amino)-3-oxoprop-1-en-1-yl)-N-cyclopropyl-7-hydroxy-4-isobutyl-2-methyl-5-oxo-4,5-dihydropyrazolo[1,5-a]pyrimidine-6-carboxamide]: the IC50 is 0.77 nM.

For the origin of these results see patent US20240092784A1, “CONDENSED HETEROCYCLIC COMPOUND” (NISSAN CHEMICAL CORPORATION, priority 2020, published 2024).
